Measured values taken from the CheMixHub viscosity set.

Test: xn = mol fraction of the nth substance listed

CCCCCCCCCCCCCC + C1CCCCC1
298.15 K, 101.33 kPa
Settings	viscosity [mPa·s]
x1 = 0.0144	0.9238
x2 = 0.1743	1.907
x2 = 0.3074	1.756
x2 = 0.4253	1.621
x2 = 0.5304	1.486
x2 = 0.6125	1.384
x2 = 0.6841	1.291
x2 = 0.7505	1.207
x2 = 0.8066	1.131
x2 = 0.8651	1.064
x2 = 0.9088	1.01
x2 = 0.9483	0.9646

ClC(Cl)=C(Cl)Cl + COCCO
viscosity [mPa·s], 101.33 kPa
Settings	x1 = 0.1062	x1 = 0.2046	x1 = 0.3091	x1 = 0.4453	x1 = 0.5214	x1 = 0.6184	x1 = 0.7146	x1 = 0.8062	x1 = 0.9015
303.15 K	1.365	1.273	1.178	1.066	1.009	0.943	0.89	0.846	0.808
313.15 K	1.111	1.049	0.985	0.907	0.866	0.819	0.778	0.747	0.727

CN(C)C=O + CC#N
Settings	viscosity [mPa·s]
298.15 K, 101 kPa, x2 = 0.0113	0.794
298.15 K, 101 kPa, x2 = 0.0144	0.792
298.15 K, 101 kPa, x2 = 0.0841	0.761
298.15 K, 101 kPa, x2 = 0.103	0.747
298.15 K, 101 kPa, x2 = 0.1527	0.712
298.15 K, 101 kPa, x2 = 0.2044	0.685
298.15 K, 101 kPa, x2 = 0.2682	0.654
298.15 K, 101 kPa, x2 = 0.3131	0.615
298.15 K, 101 kPa, x2 = 0.3696	0.598
298.15 K, 101 kPa, x2 = 0.3798	0.603
298.15 K, 101 kPa, x2 = 0.4759	0.552
298.15 K, 101 kPa, x2 = 0.5317	0.529
298.15 K, 101 kPa, x2 = 0.5759	0.492
298.15 K, 101 kPa, x2 = 0.6348	0.448
298.15 K, 101 kPa, x2 = 0.6876	0.499
298.15 K, 101 kPa, x2 = 0.743	0.408
298.15 K, 101 kPa, x2 = 0.7906	0.382
298.15 K, 101 kPa, x2 = 0.8453	0.382
298.15 K, 101 kPa, x2 = 0.8954	0.345
298.15 K, 101 kPa, x2 = 0.9485	0.346
298.15 K, 101 kPa, x2 = 0.9723	0.333
303.15 K, 101 kPa, x2 = 0.1176	0.6994
303.15 K, 101 kPa, x2 = 0.2399	0.6372
303.15 K, 101 kPa, x2 = 0.4348	0.5495
303.15 K, 101 kPa, x2 = 0.5933	0.4816
303.15 K, 101 kPa, x2 = 0.7275	0.4283
303.15 K, 101 kPa, x2 = 0.8419	0.3842
303.15 K, 101 kPa, x2 = 0.9418	0.3496
303.15 K, 101.33 kPa, x2 = 0.0953	0.7392
303.15 K, 101.33 kPa, x2 = 0.1981	0.6991
303.15 K, 101.33 kPa, x2 = 0.3038	0.6537
303.15 K, 101.33 kPa, x2 = 0.3988	0.6046
303.15 K, 101.33 kPa, x2 = 0.5	0.5476
303.15 K, 101.33 kPa, x2 = 0.6013	0.494
303.15 K, 101.33 kPa, x2 = 0.6983	0.4471
303.15 K, 101.33 kPa, x2 = 0.8009	0.4023
303.15 K, 101.33 kPa, x2 = 0.8992	0.3607

O=[N+]([O-])c1ccccc1 + CCCCO
viscosity [mPa·s]
Settings	298.15 K	303.15 K	308.15 K	318.15 K
101 kPa, x1 = 0.2	–	–	1.58	1.27
101 kPa, x1 = 0.4	–	–	1.411	1.128
101 kPa, x1 = 0.6	–	–	1.339	1.109
101 kPa, x1 = 0.8	–	–	1.35	1.147
101 kPa, x1 = 0.9	–	–	1.403	1.196
101 kPa, x1 = 0.95	–	–	1.453	1.252
101.33 kPa, x1 = 0.0625	2.311	2.075	–	–
101.33 kPa, x1 = 0.1311	2.142	1.878	–	–
101.33 kPa, x1 = 0.2051	1.954	1.739	–	–
101.33 kPa, x1 = 0.2885	1.814	1.611	–	–
101.33 kPa, x1 = 0.376	1.711	1.559	–	–
101.33 kPa, x1 = 0.4747	1.65	1.423	–	–
101.33 kPa, x1 = 0.5846	1.589	1.446	–	–
101.33 kPa, x1 = 0.7007	1.625	1.476	–	–
101.33 kPa, x1 = 0.8442	1.658	1.509	–	–
